The subject of the series is human MDR1 P-gp. The series can be described thus: Efflux in MDCK cells transfected with the human MDR1 gene (MDCK-PGP permeability). The format is in vitro ADME, canine. As to conditions: dog, pH 7.4, 37° C.; for efflux ratio: PEBA/PEAB; for Papp A→B: apical-to-basal apparent permeability (PEAB). As for the experimental part:
Assessment of Efflux in Madin-Darby Canine Kidney (MDCK) Cells Transfected with the 30 Human MDR1 Gene to Assess Brain Penetration (Drug Metabolism and Disposition February 2008, 36 (2) 268-275; DOI: https://doi.org/10.1124/dmd.107.017434) Apparent permeability coefficients (PE) of the compounds across the MDCK-MDR1 cell monolayers are measured (pH 7.4, 37° C.) in apical-to-basal (AB) and basal-to-apical (BA) transport direction. AB permeability (PEAB) represents drug absorption from the blood into the 35 brain and BA permeability (PEBA) drug efflux from the brain back into the blood via both passive permeability as well as active transport mechanisms mediated by efflux and uptake transporters that are expressed on the MDCK-MDR1 cells, predominantly by the overexpressed human MDR1 P-gp. The compounds are assigned to permeability/absorption classes by comparison of the AB permeabilities with the AB permeabilities of reference compounds with known in vitro permeability and oral absorption in the human. Identical or similar permeabilities in both transport directions indicate passive permeation, vectorial permeability points to additional active transport mechanisms. Higher PEBA than PEAB indicates the involvement of active efflux mediated by MDR1 P-gp. Active transport is concentration-dependently saturable.
MDCK-MDR1 cells (1-2×10e5 cells/1 cm2 area) are seeded on filter inserts (Costar transwell polycarbonate or PET filters, 0.4 μm pore size) and cultured (DMEM) for 7 days. Subsequently, the MDR1 expression is boosted by culturing the cells with 5 mM sodium butyrate in full medium for 2 days. Compounds are dissolved in appropriate solvent (like DMSO, 1-20 mM stock solutions). Stock solutions are diluted with HTP-4 buffer (128.13 mM NaCl, 5.36 mM KCl, 1 mM MgSO4, 1.8 mM CaCl2, 4.17 mM NaHCO3, 1.19 mM Na2HPO4×7H2O, 0.41 mM NaH2PO4xH2O, 15 mM HEPES, 20 mM glucose, 0.25% BSA, pH 7.4) to prepare the transport solutions (0.1-300 μM compound, final DMSO <=0.5%). The transport solution (TL) is applied to the apical or basolateral donor side for measuring A-B or B-A permeability (3 filter replicates), respectively. The receiver side contains the same buffer as the donor side. Samples are collected at the start and end of experiment from the donor and at various time intervals for up to 2 hours also from the receiver side for concentration measurement by HPLC-MS/MS or scintillation counting. Sampled receiver volumes are replaced with fresh receiver solution.

The values that follow come from patent US10941137B2, “Difluoromethyl-phenyl triazoles” (Boehringer Ingelheim International GmbH, priority 2018, dated 2021).

For the compound `Cc1nnn(-c2ccc(C(F)F)cc2)c1COc1ccc(-n2ccc(C(N)=O)n2)nn1` [Example 21], the efflux ratio is 1.2 and the Papp A→B was determined as 25 ×10⁻⁶ cm/s.

On to `CCn1cc(-c2ccc(OCc3c(C)nnn3-c3ccc(C(F)F)cc3)nn2)cn1` [Example 7], for which the efflux ratio was found to be 2.7 and the Papp A→B turned out to be 17.7 ×10⁻⁶ cm/s.

As to `Cc1nnn(-c2ccc(C(F)F)cc2)c1COc1ccc(-c2cncnc2)nn1` [Example 22], the efflux ratio was 1.1 and the apical-to-basolateral permeability (Papp A→B) was found to be 49.6 ×10⁻⁶ cm/s.

For `Cc1nnn(-c2ccc(C(F)F)cc2)c1COc1ccc(-c2cnn(C3CC3)c2)nn1` [Example 9], the efflux ratio is 0.8 and the apparent permeability from apical to basolateral (Papp A→B) stood at 42.4 ×10⁻⁶ cm/s.

For the compound `COC(=O)c1cn(-c2ccc(OCc3c(C)nnn3-c3ccc(C(F)F)cc3)nn2)cn1` [Example 29], the efflux ratio was 2.8 and the Papp A→B came out at 18.8 ×10⁻⁶ cm/s.

Consider `Cc1ncc(-c2ccc(OCc3c(C)nnn3-c3ccc(C(F)F)cc3)nn2)o1` [Example 6], for which the efflux ratio was 0.7 and the Papp A→B was found to be 67.8 ×10⁻⁶ cm/s.

Take `Cc1nnn(-c2ccc(C(F)F)cc2)c1COc1ccc(-n2ccc(C#N)n2)nn1` [Example 20]: the efflux ratio was 0.6 and the Papp A→B stood at 52 ×10⁻⁶ cm/s.

As for `Cc1ncn(-c2ccc(OCc3c(C)nnn3-c3ccc(C(F)F)cc3)nn2)n1` [Example 33], the efflux ratio stood at 0.9 and the apical-to-basolateral permeability (Papp A→B) worked out at 52.2 ×10⁻⁶ cm/s.

In the case of `Cc1nnn(-c2ccc(C(F)F)cc2)c1COc1ccc(-n2ccc(C(F)(F)F)n2)nn1` [Example 24], the efflux ratio amounted to 0.4 and the apparent permeability from apical to basolateral (Papp A→B) is 51.3 ×10⁻⁶ cm/s.

As to `Cc1cc(-c2ccc(OCc3c(C)nnn3-c3ccc(C(F)F)cc3)nn2)cnn1` [Example 11], the efflux ratio is 3.7 and the Papp A→B was 18.8 ×10⁻⁶ cm/s.

As for `CNC(=O)c1cn(-c2ccc(OCc3c(C)nnn3-c3ccc(C(F)F)cc3)nn2)cn1` [Example 14], the efflux ratio was found to be 3.8 and the Papp A→B was determined as 14.6 ×10⁻⁶ cm/s.

In the case of `Cc1nnn(-c2ccc(C(F)F)cc2)c1COc1ccc(-n2cnc(C(=O)O)c2)nn1` [Example 37, 1-[6-({1-[4-(difluoromethyl)phenyl]-4-methyl-1H-1,2,3-triazol-5-yl}methoxy)pyridazin-3-yl]-1H-imidazole-4-carboxylic acid], the efflux ratio came out at 0.8 and the Papp A→B amounted to 0.7 ×10⁻⁶ cm/s.

Regarding `Cc1nnn(-c2ccc(C(F)F)cc2)c1COc1ccc(-n2cc(C(F)(F)F)cn2)nn1` [Example 25], the efflux ratio came out at 0.3 and the apical-to-basolateral permeability (Papp A→B) came to 56.1 ×10⁻⁶ cm/s.

For the compound `CC(=O)c1cn(-c2ccc(OCc3c(C)nnn3-c3ccc(C(F)F)cc3)nn2)cn1` [Example 32], the efflux ratio is 3.4 and the Papp A→B was found to be 17.6 ×10⁻⁶ cm/s.

For `Cc1nnn(-c2ccc(C(F)F)cc2)c1COc1ccc(-n2cnc(C[N+](C)(C)C)c2)nn1.O=C([O-])C(F)(F)F` [Example 36, ({1-[6-({1-[4-(difluoromethyl)phenyl]-4-methyl-1H-1,2,3-triazol-5-yl}methoxy)pyridazin-3-yl]-1H-imidazol-4-yl}methyl)trimethylazanium trifluoroacetate], the efflux ratio is 0.5 and the Papp A→B stood at 0.6 ×10⁻⁶ cm/s.

With `COc1ncc(-c2ccc(OCc3c(C)nnn3-c3ccc(C(F)F)cc3)nn2)cn1` [Example 3], the efflux ratio was determined as 0.6 and the Papp A→B turned out to be 59.7 ×10⁻⁶ cm/s.

Regarding `Cc1nnn(-c2ccc(C(F)F)cc2)c1COc1ccc(-n2cnc(C(F)F)c2)nn1` [Example 15], the efflux ratio was determined as 1.1 and the apical-to-basolateral permeability (Papp A→B) came out at 31.8 ×10⁻⁶ cm/s.

`Cc1nnn(-c2ccc(C(F)F)cc2)c1COc1ccc(-n2cnc(Cl)c2)nn1` [Example 18]: the efflux ratio was found to be 1.1 and the Papp A→B stood at 28.5 ×10⁻⁶ cm/s.

Usually efflux ratio stands for the permeability from basolateral to apical divided by that in the opposite direction, in the common usage. Broadly, the Papp A→B is the apparent permeability from the apical to the basolateral side of a cell layer.
